Measured values taken from patent US20230201173A1, “SMAD4 Complex Inducers and Uses in Cancer Therapy” (Emory University, priority 2021, published 2023).

What was measured:
[1] = target: T1, His-SMAD4R361H/Flag-SMAD3 PPI (Homo sapiens, UniProt Q13485, R361H); assay: TR-FRET assay of the SMAD4R361H/SMAD3 protein-protein interaction in cell lysate; type: binding; details: dose-response, read-out: EC50, increase of the TR-FRET signal of SMAD4R361H-SMAD3 PPI
T1 construct: expressed in transfected cells; host or cells: HEK293T
T1 sequence (P84022 whole entry partner, one chain of several): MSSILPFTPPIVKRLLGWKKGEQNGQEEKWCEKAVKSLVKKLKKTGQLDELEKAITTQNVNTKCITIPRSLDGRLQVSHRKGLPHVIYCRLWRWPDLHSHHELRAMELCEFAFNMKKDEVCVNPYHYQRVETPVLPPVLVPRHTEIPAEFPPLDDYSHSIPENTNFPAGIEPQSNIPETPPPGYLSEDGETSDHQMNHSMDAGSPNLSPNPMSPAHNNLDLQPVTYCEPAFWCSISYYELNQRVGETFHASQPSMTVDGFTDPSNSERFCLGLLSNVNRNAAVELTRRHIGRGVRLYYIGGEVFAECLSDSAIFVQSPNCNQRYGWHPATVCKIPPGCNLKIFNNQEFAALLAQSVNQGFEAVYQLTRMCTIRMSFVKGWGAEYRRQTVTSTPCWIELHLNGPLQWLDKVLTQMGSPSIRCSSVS

[2] = target: T2, SMAD4R361H-SMAD3 complex (Homo sapiens, UniProt Q13485, R361H); assay: GST beads pull-down assay of SMAD4R361H-SMAD3 complex formation; type: binding; details: cell lysate treated with compound, read-out: EC50, amount of SMAD3 in the SMAD4R361H complex
T2 construct: expressed in transfected cells
T2 sequence (P84022 whole entry partner, one chain of several): as above

[3] = target: T3, SMAD4D351H-SMAD3 PPI (Homo sapiens, UniProt Q13485, D351H); assay: GST pull-down assay of SMAD4D351H-SMAD3 complex formation; type: binding; details: DMSO as control
T3 construct: expressed in transfected cells
T3 sequence (Q13485 whole entry D351H): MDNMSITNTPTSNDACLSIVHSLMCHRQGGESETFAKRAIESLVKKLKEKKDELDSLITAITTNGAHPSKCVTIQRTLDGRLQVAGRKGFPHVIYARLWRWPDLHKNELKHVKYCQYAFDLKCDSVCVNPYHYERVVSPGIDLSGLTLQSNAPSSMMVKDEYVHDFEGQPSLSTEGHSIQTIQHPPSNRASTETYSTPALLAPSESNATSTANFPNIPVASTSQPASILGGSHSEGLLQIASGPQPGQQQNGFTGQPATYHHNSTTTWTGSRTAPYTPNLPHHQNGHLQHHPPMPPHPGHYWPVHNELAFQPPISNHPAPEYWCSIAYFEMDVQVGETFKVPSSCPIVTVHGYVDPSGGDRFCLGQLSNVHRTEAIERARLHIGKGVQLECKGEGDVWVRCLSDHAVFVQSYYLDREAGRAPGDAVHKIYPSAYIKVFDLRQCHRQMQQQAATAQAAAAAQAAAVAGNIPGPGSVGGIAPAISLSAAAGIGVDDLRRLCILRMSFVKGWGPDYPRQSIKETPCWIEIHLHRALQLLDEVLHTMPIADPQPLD
T3 sequence (P84022 whole entry partner): as the sequence (P84022 whole entry partner, one chain of several) above
Text: To evaluate the mutation selectivity of Ro-31-8220 and Go-6983, their potentiation effect on other SMAD4 loss-of-function mutations, such as D351H, was examined. The PPI between SMAD3 and SMAD4D351H was studied in the presence of these compounds with DMSO as a control.

[4] = test system: SMAD4R361H with R-SMADs (SMAD3, SMAD2, SMAD1, SMAD5, SMAD8); assay: TR-FRET assay of SMAD4R361H with different R-SMAD isoforms; type: binding, Homo sapiens; details: for R-SMAD selectivity in inducing the interaction of SMAD4R361H with SMAD3 and SMAD2: among all the tested R-SMADs; for compound-induced TR-FRET signal for SMAD4R361H interaction with SMAD3 versus other R-SMADs: compound titration
Experimental: To determine the R-SMADs selectivity of Ro-31-8220 and Go-6983, experiments were performed to determine their effects on inducing PPI between SMAD4R361H and different isoforms of R-SMADs using the TR-FRET assay.

[5] = test system: HCT116 cells (WT), SMAD4 knockout (null) and R361H isogenic cells; assay: Cell viability (CellTiter-Blue) in isogenic colon cancer cells; type: cell-based; details: Ro-31-8220 1 μM
Experimental: HCT116 cells (WT) and corresponding SMAD4 knockout (null) or R361H, isogenic cells were treated with TGF-β (10 ng/mL), Ro-31-8220 (1 μM), Go-6983 (10 μM), or in combination as indicated. The cell viability after treatment was measured using the CellTiter-Blue™ reagent and normalized to the untreated vehicle or DMSO controls (% C).
(§1) Experiments indicate that Ro-31-8220 is capable of restoring the SMAD4mut/SMAD3 PPI and the tumor-suppressive TGF-β signaling in the SMAD4 mutation cells. Experiments were also performed to determine whether Ro-31-8220 can promote TGF-β-evoked anti-proliferation function in cancer cells with SMAD4 missense mutations. Three functional assays were performed to measure the effect of Ro-31-8220 on cell-cycle progression, cell proliferation, and colony formation with WT and isogenic SMAD4 mutant colon cancer cells.
Thus, the effect of Ro-31-8220 on TGF-β-regulated cell proliferation was examined in the context of the SMAD4 mutation. TGF-β induced a significant decrease of cell viability of SMAD4 WT cells, while the isogenic SMAD4 null or R361H cells were resistant to such TGF-β-induced growth suppression (FIG. 3B).

[6] = test system: HCT116 isogenic SMAD4 R361H cells; assay: Colony formation assay; type: cell-based; details: TGF-β 10 ng/mL; Ro-31-8220 1 μM, Go-6983 10 μM
Experimental: Parental HCT116 (WT) and isogenic R361H cells were treated with TGF-β (10 ng/mL), Ro-31-8220 (1 μM), Go-6983 (10 μM), or in combination as indicated.
as §1
The lost tumor suppressor function of mutated SMAD4, R361H, can be recapitulated in an in vitro tumorigenic assay. Colon cancer HCT116 cells with WT and their isogenic mutant SMAD4 cells can grow into large colonies.

[7] = test system: HCT116 isogenic SMAD4 R361H cells; assay: Flow cytometry-based cell-cycle analysis (G1/S phase); details: TGF-β 10 ng/mL; Ro-31-8220 1 μM, Go-6983 10 μM
Experimental: Parental HCT116 (WT) and isogenic R361H cells were treated with TGF-β (10 ng/mL), Ro-31-8220 (1 μM), Go-6983 (10 μM), or in combination as indicated. The percentage of cells staying in G1/S phase was determined by flow cytometry.
as §1

[8] = test system: R361H cells; assay: Transcriptional response to TGF-β (pro-apoptotic and pro-autophagy genes); type: cell-based
[9] = target: Flag-SMAD3, P84022; assay: TR-FRET, HEK293T cell lysate, anti-Flag-Tb / anti-His-D2; details: remark: other sources report otherwise
Flag-SMAD3, P84022, sequence (P84022 whole entry): as the sequence (P84022 whole entry partner, one chain of several) above

Row | Molecule | EC50 [1] [µM] | EC50 [2] [µM] | SMAD3 level in the D351H GST pull-down complex [3] | R-SMAD selectivity in inducing the interaction of SMAD4R361H with SMAD3 and SMAD2 [4] | compound-induced TR-FRET signal for SMAD4R361H interaction with SMAD3 versus other R-SMADs [4] | combination with TGF-β in inhibiting cell viability ([5]; TGF-β 10 ng/mL, Go-6983 10 μM) | combination with TGF-β in inhibiting colon cancer cell colony formation [6] | sensitivity of R361H cells to TGF-β-induced G1/S cell-cycle arrest [7] | sensitivity of SMAD4 R361H cells to TGF-β-induced growth suppression ([5]; R361H cells, TGF-β 10 ng/mL, Go-6983 10 μM) | growth inhibition by compound treatment alone ([5]; SMAD4 WT, null and R361H cells) | colony area of R361H cells, sensitivity to TGF-β-induced inhibition of colony formation [6] | transcriptional response of R361H cells to TGF-β [8] | signal-to-background ratio [9] [fold]
1 | COc1ccc2c(c1)c(C1=C(c3c[nH]c4ccccc34)C(=O)NC1=O)cn2CCCN(C)C [Go-6983, 3-(1-(3-(dimethylamino)propyl)-5-methoxy-1H-indol-3-yl)-4-(1H-indol-3-yl)-1H-pyrrole-2,5-dione] | 15.2 ± 2.9 | 8.9 ± 0.7 | significantly restored | selective | significantly higher | synergistic effect | synergistic effect | – | – | – | – | – | –
2 | Cn1cc(C2=C(c3cn(CCCSC(=N)N)c4ccccc34)C(=O)NC2=O)c2ccccc21 [Ro-31-8220, 3-(3-(4-(1-methyl-1H-indol-3-yl)-2,5-dioxo-2,5-dihydro-1H-pyrrol-3-yl)-1H-indol-1-yl)propyl carbamimidothioate] | 3.9 ± 1 | 2.1 ± 0.7 | significantly restored | selective | significantly higher | synergistic effect | synergistic effect | regained sensitivity | restored the sensitivity | did not result in any significant growth inhibition | significantly decreased colony area | restored the transcriptional response | –
3 | His-SMAD4WT, Q13485 1-552 (protein, not shown: small tags and cut ends) MDNMSITNTPTSNDACLSIVHSLMCHRQGGESETFAKRAIESLVKKLKEKKDELDSLITAITTNGAHPSKCVTIQRTLDGRLQVAGRKGFPHVIYARLWRWPDLHKNELKHVKYCQYAFDLKCDSVCVNPYHYERVVSPGIDLSGLTLQSNAPSSMMVKDEYVHDFEGQPSLSTEGHSIQTIQHPPSNRASTETYSTPALLAPSESNATSTANFPNIPVASTSQPASILGGSHSEGLLQIASGPQPGQQQNGFTGQPATYHHNSTTTWTGSRTAPYTPNLPHHQNGHLQHHPPMPPHPGHYWPVHNELAFQPPISNHPAPEYWCSIAYFEMDVQVGETFKVPSSCPIVTVDGYVDPSGGDRFCLGQLSNVHRTEAIERARLHIGKGVQLECKGEGDVWVRCLSDHAVFVQSYYLDREAGRAPGDAVHKIYPSAYIKVFDLRQCHRQMQQQAATAQAAAAAQAAAVAGNIPGPGSVGGIAPAISLSAAAGIGVDDLRRLCILRMSFVKGWGPDYPRQSIKETPCWIEIHLHRALQLLDEVLHTMPIADPQPLD | – | – | – | – | – | – | – | – | – | – | – | – | 30
4 | His-SMAD4R361H, Q13485 1-552 (protein, not shown: small tags and cut ends) MDNMSITNTPTSNDACLSIVHSLMCHRQGGESETFAKRAIESLVKKLKEKKDELDSLITAITTNGAHPSKCVTIQRTLDGRLQVAGRKGFPHVIYARLWRWPDLHKNELKHVKYCQYAFDLKCDSVCVNPYHYERVVSPGIDLSGLTLQSNAPSSMMVKDEYVHDFEGQPSLSTEGHSIQTIQHPPSNRASTETYSTPALLAPSESNATSTANFPNIPVASTSQPASILGGSHSEGLLQIASGPQPGQQQNGFTGQPATYHHNSTTTWTGSRTAPYTPNLPHHQNGHLQHHPPMPPHPGHYWPVHNELAFQPPISNHPAPEYWCSIAYFEMDVQVGETFKVPSSCPIVTVDGYVDPSGGDHFCLGQLSNVHRTEAIERARLHIGKGVQLECKGEGDVWVRCLSDHAVFVQSYYLDREAGRAPGDAVHKIYPSAYIKVFDLRQCHRQMQQQAATAQAAAAAQAAAVAGNIPGPGSVGGIAPAISLSAAAGIGVDDLRRLCILRMSFVKGWGPDYPRQSIKETPCWIEIHLHRALQLLDEVLHTMPIADPQPLD | – | – | – | – | – | – | – | – | – | – | – | – | 10
